We go through 2 compounds from ChEMBL document CHEMBL4043159, “Structural evidence for the DPPH radical-scavenging mechanism of 2-O-α-d-glucopyranosyl-l-ascorbic acid” (Bioorg Med Chem, 2017).

What all share (format): functional
A short description of experiment [1]: Antioxidant activity assessed as time duration for DPPH free radical scavenging activity at 20 uM by HPLC.
Experiment [2] can be described thus: Antioxidant activity assessed as DPPH free radical scavenging activity by measuring retention time of AA-2G-DPPH product at 20 uM incubated for 30 mins by HPLC method.
Experiment [3] in a line: Antioxidant activity assessed as DPPH free radical scavenging activity by measuring radical-scavenging activity factor (moles of radicals scavenged by each mol of antioxidant) at 20 uM measured at 10 mins by HPLC.
Experiment [4] is described as follows: Antioxidant activity assessed as DPPH free radical scavenging activity by measuring radical-scavenging activity factor (moles of radicals scavenged by each mol of antioxidant) at 20 uM measured at 120 mins by HPLC.
Experiment [5] is described as follows: Antioxidant activity assessed as DPPH free radical scavenging activity by measuring radical-scavenging activity factor (moles of radicals scavenged by each mol of antioxidant) at 20 uM measured at 15 mins by HPLC.
Experiment [6] is described as follows: Antioxidant activity assessed as DPPH free radical scavenging activity by measuring radical-scavenging activity factor (moles of radicals scavenged by each mol of antioxidant) at 20 uM measured at 30 mins by HPLC.
A short description of experiment [7]: Antioxidant activity assessed as DPPH free radical scavenging activity by measuring AA-2G-DPPH product formation at 0.25 to 0.75 mM incubated for 30 mins by HPLC method.
Experiment [8] in a line: Antioxidant activity assessed as DPPH free radical scavenging activity by measuring AA-2G-DPPH adducts formation at 200 uM measured within 10 mins by HPLC.
The nature of experiment [9]: Antioxidant activity assessed as DPPH free radical scavenging activity by measuring AA-2G-DPPH adducts level at 200 uM measured at 10 mins by HPLC.
The nature of experiment [10]: Antioxidant activity assessed as DPPH free radical scavenging activity by measuring amount of compound consumed at 200 uM measured at 10 mins by HPLC.
A short description of experiment [11]: Antioxidant activity assessed as DPPH free radical scavenging activity by measuring AA-2G-DPPH adducts formation at 5 mM incubated for 10 to 30 mins by 1H NMR spectroscopy.

SMILES strings stand for the structures. Calls of active or inactive are those of the source. No cut-off for these calls is given here.

With `O=C1O[C@H]([C@@H](O)CO)C(O)=C1O`, the TIME in [1] was less than 0.0167 h. The result in [2] was inactive. For the same compound, the scavenging factor in experiment [3] came out at 1.8 mol/mol; in experiment [4] it was 1.9 mol/mol; in [5], 1.8 mol/mol; in [6] it was 1.9 mol/mol.

Consider `O=C1O[C@H]([C@@H](O)CO)C(O)=C1O[C@H]1O[C@H](CO)[C@@H](O)[C@H](O)[C@H]1O`, for which the Activity result was “Dose-dependent effect” in experiment [7], 190 µM in [9] and 190 µM in experiment [10]. The TIME in experiment [1] was 2 h. Further, the Retention time in experiment [2] was 15 min. Besides, the scavenging factor in experiment [3] came to 1.5 mol/mol; in [4], 2.7 mol/mol; in experiment [5], 1.7 mol/mol; in experiment [6], 2.1 mol/mol. The outcome in experiment [8] and in experiment [11] was Active.
